US20040067991A1, “Tetrahydrobenzothiazole analogues as neuroprotective agents” (priority 2003, published 2004)
“Also recorded” adds a separate entry of the source. Structures can show the parent of a compound that is named as a salt. Where two headings read alike, the source gives them in different places.

Experiments:
[1] = tested on: C57BL/6 mice given MPTP; assay: MPTP-induced Parkinson's disease model: rotarod behavioral tests; type: in vivo, mouse; conditions: 2 mg/kg i.p. 30 min before first and 30 min after last MPTP injection; day 7
Description: (§1) The ability of PFTα (5) and compounds 5× (Z-1-117) and 13 (Z-1-143) to protect dopaminergic neurons against MPTP toxicity was tested. MPTP (20 mg/kg) was administered intraperitoneally to 2 month-old male C57BL/6 mice by four injections at two hour intervals to induce dopaminergic cell death.
At seven days, behavioral tests were performed using the rotarod test equipment. The number of falls and running times were measured.

[2] = tested on: rat hippocampal neurons; assay: Neuronal survival assay in cultured hippocampal neurons treated with camptothecin or etoposide; type: cell-based; conditions: for neuroprotection of hippocampal neurons against camptothecin (in words): 100 nM, added 1 h before camptothecin 5 μM; for neuroprotection of hippocampal neurons against etoposide (in words): added 1 h before etoposide 2.5 μM; for protection of primary hippocampal cells against death induced by camptothecin and etoposide (in words): camptothecin 5 μM, etoposide 2.5 μM; for protection of primary hippocampal cells against death induced by camptothecin and etoposide (in words) / neuronal survival: 24 h; for neuronal survival: pretreated with 100 nM of analogue, then camptothecin (5 μM)
Description: 2-amino-4,5,6,7-tetrahydrobenzothiazole hydrogen and 1-(4-methylphenyl)-2-(4,5,6,7-tetrahydro-2-imino-3(2H)-benzothiazolyl)-ethanone hydrobromide and their analogues were assessed for their ability to protect rat hippocampal cells in culture from camptothecin ([…]).
Dissociated hippocampal cell cultures were established from embryonic day 18 Sprague-Dawley rats (Harlan, Inc.) as described previously. […] 77:220-28. Cells were grown in polyethyleneimine-coated plastic dishes or 22 m^2 glass coverslips, and incubated in Neurobasal medium containing B27 supplements, 2 mM L-glutamine, 25 mg/ml gentamycin, 1 mM Hepes (Gibco BRL) and 0.001% gentamicin sulfate. All experiments were performed using 9-10 day-old cultures. Camptothecin and etoposide (Signia) were prepared as 500× stocks in DMSO. Neuron survival was quantified by established methods. […] Briefly, viable neurons in premarked fields (10× objective) were counted before experimental treatment and at specified time points thereafter. Neurons with intact neurites of uniform diameter and soma with a smooth round appearance were considered viable. In contrast neurons with fragmented neurites and vacuolated soma were considered non-viable.

[3] = tested on: striatal tyrosine hydroxylase (TH); assay: MPTP model: striatal tyrosine hydroxylase levels by Western blot densitometry; type: in vivo, mouse; conditions: 2 mg/kg, 7 days later, hydrobromide
Description: as §1
Levels of tyrosine hydroxylase (TH), the enzyme that catalyzes the rate-limiting step in dopamine synthesis, also were assessed in the striatum using Western blot analysis.

[4] = tested on: substantia nigra dopaminergic neurons; assay: MPTP model: TH-immunostained cells in the substantia nigra; type: in vivo, mouse; conditions: 2 mg/kg, seven days after treatment, 4 mice/group
Description: as §1
In yet another experiment, the number of TH-immunostained cells in the substantia nigra was assessed in four animals seven days after treatment. Mice were euthanized and perfused by 4% paraformadehyde transcardially. Brain sections were cut and immunostained with an antibody against TH. PFT-A and compound 5× attenuated MPTP-induced loss of substantia nigra dopaniinergic neurons.

[5] = tested on: PC12 cells; assay: Protection of PC12 cells against camptothecin-induced cell death (BCECF AM fluorescence); type: cell-based
Description: The 2-amino-4,5,6,7-tetrahydrobenzothiazole hydrogen iodide, 1-(4-methylphenyl)-2-(4,5,6,7-tetrahydro-2-imino-3(2H)-benzothiazolyl)-ethanone hydrobromide, and analogues were tested for their ability to protect PC12 cells against the toxic agent, camptothecin. PC12 cells were cultured in RPMI1640 media containing 10% horse serum and 5% fetal calf serum (37° C., pH 7.4) until confluent. Thereafter, 2.2×10^4 cells per mL were added to each trough of a 96 well plate (approximately 6,270 cells per well 285 μL) and were left to grow for 12 h. The media then was removed and was replaced by media with and without the compounds to be tested, including precursor, PFTα, and numerous analogues (concentration 100-400 nM, prepared in DMSO to a final dilution of 0.4%, 8 wells per concentration). Following 6 h of incubation, camptothecin (40 μM) was added to 4 of each 8 wells, and the cells were incubated for a further 24 h. Cells then were gently washed twice with phosphate buffered saline (PBS: 0.1 M, 37° C., pH 7.4) and were incubated in PBS containing the live-cell indicator dye, 2′,7′-bis(2-carboxyethey)-5-6-carboxyfluorescein AM ester (BCECF AM: 5 μM) (Molecular Probes, CA), for 45 min in minimal light. This fluorescent dye was taken up and retained by live cells. Finally, the cells were washed twice in PBS and their fluorescence then was quantified (excitation: 490 nm, emission: 535 nm, Perkin Elmer HTS 7000).
PC12 cell survival was also assessed. One hundred percent cell survival was determined from cells incubated in the absence of both any compound and camptothecin. […] Compound-induced toxicity was assessed by comparing cells treated with compound at various concentrations in the absence of camptothecin with cells incubated in the absence of both compound and camptothecin. […] Compound-induced cellular protection was assessed by comparing cells incubated with camptothecin with cells incubated with camptothecin in the presence of compound, in a concentration-dependent manner.

[6] = tested on: C57BL/6 mice given MPTP; assay: MPTP model: striatal dopamine, serotonin and metabolites by HPLC; type: in vivo, mouse; conditions: striatal tissue; for levels of dopamine, DOPAC, and HVA as compared to the MPTP-induced reduction (in words): 2 mg/kg; for 5-HIAA / 5-HT / DOPAC / Dopamine / HVA: compound 2 mg/kg + MPTP, mean±SE, 4-6 mice/group
Description: as §1
In a separate experiment, levels of striatal dopamine, dopamine metabolites, serotonin, and serotonin metabolites were measured using HPLC analysis. Specifically, mice were euthanatized, and striatal tissue samples were removed and levels of dopamine, DOPAC, HVA, 5-HT, 5-HIAA were quantified. […] There was no significant difference in levels of serotonin or serotonin metabolites.

[7] = tested on: C57BL/6 mice, middle cerebral artery occlusion; assay: Transient focal cerebral ischemia/reperfusion (middle cerebral artery occlusion) stroke model; type: in vivo, mouse
Description: Surgery was performed in anesthetized (xylazine 5 mg/kg, chloral hydrate 350 mg/kg) mice (3 month old C57B1/6) in accordance with a protocol approved by the NIH Animal Care and Use Committee. The focal ischemia/reperfusion model has been described previously. See Bruce et al. (1996) Nat. Med. 2:788-94. This method involves occluding the middle cerebral artery for 1 h with a nylon thread, and then removing it to allow reperfusion. During the procedure, mice were maintained at 37° C. and blood gases, flow and pressure were monitored. At 24 h after ischemia, mice were anesthetized, decapitated, and their brains were cut into 2 mm coronal sections, which then were stained with triphenyltetrazolium for 30 min at 37° C. Images of the stained brains were captured by digital camera for quantitative analysis of infarct area and volume.
The infarct volume for vehicle was 40 mm^3. When mice were treated with PFTα, infarct volume was 20 mm^3, a highly significant 50% decrease.

[8] = tested on: primary hippocampal neurons; assay: Neuronal survival of primary hippocampal neurons after excitotoxic insult (glutamate); type: cell-based, rat; conditions: for protection of hippocampal neurons against glutamate-induced death (in words): 0.04 μM 1 h before glutamate (20 μM), survival at 24 h; for neuron survival increased: neurons pretreated with compound, death induced by glutamate
Description: Dissociated hippocampal cell cultures were established from embryonic day 18 Sprague-Dawley rats (Harlan, Inc.) as described previously. See Culmsee et al. (2001) J. Neurochem. 77:220-28. Cells were grown in polyethyleneimine-coated plastic dishes or 22 m^2 glass coverslips, and incubated in Neurobasal medium containing B27 supplements, 2 mM L-glutamine, 25 mg/ml gentamycin, 1 mM Hepes (Gibco BRL) and 0.001% gentamicin sulfate. All experiments were performed using 9-10 day-old cultures. Camptothecin and etoposide (Signia) were prepared as 500× stocks in DMSO. Neuron survival was quantified by established methods. See Mattson et al. (1993) Neuron 10:243-54. Briefly, viable neurons in premarked fields (10× objective) were counted before experimental treatment and at specified time points thereafter. Neurons with intact neurites of uniform diameter and soma with a smooth round appearance were considered viable. In contrast neurons with fragmented neurites and vacuolated soma were considered non-viable.
Primary hippocampal neurons were prepared and cultured as described above. Cultures were pretreated with compounds 14 and 1 (0.04 μM) 1 h before exposure to glutamate (20 μM) in Locke's medium. The percentage of neuronal survival 24 h after the onset of insult is given as mean values±SD.

[9] = tested on: caspase activation; assay: Caspase activation; type: cell-based
[10] = 6 h preincubation with compound, camptothecin 40 μM for 24 h; read-out: PD50; concentration of compounds required to induce 50% protection (PC50) of PC12 cells from camptothecin-induced cell-death
[11] = compounds 100-400 nM, camptothecin 40 μM 24 h
[12] = read-out: PD50; concentration of compounds required to induce 50% protection (PC50) of PC12 cells from camptothecin-induced cell-death; 6 h preincubation with compound, camptothecin 40 μM for 24 h

| Structure (SMILES) | number of falls on rotarod (in words) [1] | running time on rotarod (in words) [1] | neuroprotection of hippocampal neurons against camptothecin (in words) [2] | neuroprotection of hippocampal neurons against etoposide (in words) [2] | neuronal survival [2] | MPTP-induced loss of substantia nigra dopaminergic neurons, TH-positive cells (in words) [4] | EC50 [5, 10] | protection of PC12 cells against camptothecin-induced death (in words) [5, 11] | levels of dopamine, DOPAC, and HVA as compared to the MPTP-induced reduction (in words) [6] | 5-HIAA [6] | 5-HT [6] | DOPAC [6] | Dopamine [6] | HVA [6] | EC50 [5, 12] | protection of primary hippocampal cells against death induced by camptothecin and etoposide (in words) ([2]; Hydrobromide) | neuron survival increased [8] | caspase activation (in words) [9] | other results |
| --- | --- | --- | --- | --- | --- | --- | --- | --- | --- | --- | --- | --- | --- | --- | --- | --- | --- | --- | --- |
| Br.Cc1ccc(C(=O)Cn2c3c(sc2=N)CC(C)CC3)cc1 (stereo not shown) [Compound 5×, 1-(4-methylphenyl)-2-(4,5,6,7-tertahydro-2-imino-6-methyl-3(2H)-benzothiazolyl)-ethanone hydrobromide] | statistically significant decease | statistically significant increase | could not protect neurons effectively | activity comparable to PFTα | 29% | attenuated | 306 nM | highly potent | statistically significant increase | 246 ± 15 pg/mg tissue weight | 424 ± 12 pg/mg tissue weight | 102 pg/mg tissue weight | 1833 pg/mg tissue weight | 302 ± 20 pg/mg tissue weight | – | – | – | – | protection of primary hippocampal cells against death induced by camptothecin and etoposide (in words) [2]: highly potency; MPTP-induced loss of striatal tyrosine hydroxylase (in words) [3]: attenuate; also recorded: reverse the MPTP reduction in TH levels |
| Cc1ccc(C(=O)Cn2c3c(sc2=N)CCCC3)cc1 [Compound 5, 1-(4-methylphenyl)-2-(4,5,6,7-tetrahydro-2-imino-3(2H)-benzothiazolyl)-ethanone hydrobromide, reference compound] | statistically significant decease | statistically significant increase | – | had activity | 62% | attenuated | – | protected | statistically significant increase | 245 ± 33 pg/mg tissue weight | 419 ± 20 pg/mg tissue weight | 170 pg/mg tissue weight | 3314 pg/mg tissue weight | 328 ± 35 pg/mg tissue weight | 252 nM | – | – | – | improved cell survival compared to vehicle controls after pretreatment ([2]; 200 nM pretreatment 1 hour, camptothecin 5 μM or etoposide 2.5 μM): improved cell survival; protection of primary hippocampal cells against death induced by camptothecin and etoposide (in words) ([2]; listed as PFTα, hydrobromide): protects; also recorded: potent activity; toxicity when administered alone to hippocampal cells ([2]; concentrations up to 400 nM): neither PFTα (5) nor its precursor were toxic; MPTP-induced loss of striatal tyrosine hydroxylase (in words) ([3]; listed as PFT-a): reverse the MPTP reduction in TH levels; MPTP-induced loss of striatal tyrosine hydroxylase (in words) ([3]; listed as PFT-alpha): attenuate; neuronal survival of PC12 cells increased ([5]; compared to PC12 cells treated with camptothecin in the absence of PFTα): up to 70%; brain entry after systemic administration (in words) ([7]; 2 mg/kg i.p.): entered and acted in the brain; infarct area at four different brain levels (in words) ([7]; 2 mg/kg i.p.): reduction in the infarct area; infarct volume ([7]; 2 mg/kg i.p. before 1 h MCA occlusion, 24 h after ischemia): 20 mm^3; decrease in infarct volume ([7]; 2 mg/kg i.p., versus vehicle (40 mm^3)): 50% |
| N=c1sc2c(n1Cc1ccccc1)CCCC2 [Compound 14, 3-(phenylmethyl)-4,5,6,7-tetrahydro-2(3H)-benzothiazolimine Hydrobromide] | – | – | significant neuroprotection | more active than compound PFTα | 61% | – | – | – | – | – | – | – | – | – | 741 nM | had neuroprotection; also recorded: highly potency | 133% | suppress caspase activation | protection of hippocampal neurons against glutamate-induced death (in words) ([8]; Hydrobromide): protect; also recorded: at least partially reversed |
| Br.CCC(=O)Cn1c2c(sc1=N)CCCC2 [Compound 1, 1-(4.5,6,7-tertahydro-2-imino-3(2H)-benzothiazolyl)-2-butanone Hydrobromide] | – | – | significant neuroprotection | more active than compound PFTα | 65% | – | 571 nM | – | – | – | – | – | – | – | – | had neuroprotection; also recorded: highly potency | 39% | suppress caspase activation | protection of hippocampal neurons against glutamate-induced death (in words) [8]: protect |
